Test results from article PMC5343222, “Inhibitory Activities of Stauntonia hexaphylla Leaf Constituents on Rat Lens Aldose Reductase and Formation of Advanced Glycation End Products and Antioxidant” (BioMed Research International, 2017).

Assays:
[1] = tested on: advanced glycation end products (AGEs) formation; assay: Bovine serum albumin-methylglyoxal assay on AGEs formation; type: biochemical; conditions: BSA 50 mg/mL + methylglyoxal 100 mM, 37°C, 24 h; mean ± SEM
Method: Bovine serum albumin (50 mg/mL) was incubated with methylglyoxal (100 mM) in sodium phosphate buffer (0.1 M, pH 7.4) in the presence of various concentrations of the compounds (including a control) at 37°C for 24 h. Then the fluorescent intensity was measured at an excitation wavelength of 355 nm and an emission wavelength of 460 nm with a luminescence spectrometer LS50B (Perkin-Elmer Ltd., Buckinghamshire, England). […] All reagents and samples were sterilized by filtration through […] membrane filters.

[2] = DPPH radical scavenging assay; conditions: for IC50: 15 min incubation in the dark, mean ± SEM; for inhibitory effect on DPPH (in words): at the same concentration when compared to other compounds
Method: The stable free radical, DPPH, was used to determine the free radical scavenging activity of the SHL extracts. Briefly, a 0.32 mM solution of DPPH in methanol was prepared, and then 180 µl of this solution was mixed with 30 µl of each sample (1.0 to 5.0 mg/mL in methanol). After 15 min of incubation in the dark, the decrease in the absorbance of the solution was measured at 570 nm on a microplate reader (EL800 Universal Microplate reader, Bio-Tek instruments, Winooski, VT, USA).

[3] = biological target: T1, rat lens aldose reductase (RLAR) (Rattus norvegicus, UniProt P07943); assay: In vitro determination of RLAR inhibition (NADPH decrease at 340 nm, DL-glyceraldehyde substrate); type: biochemical; conditions: crude RLAR from Sprague-Dawley rat lenses; mean ± SEM, three independent experiments in duplicate
T1 construct: the supernatant was collected and used as the RLAR; from tissue; host or cells: lens of Sprague-Dawley rats (crude homogenate supernatant)
Method: Crude RLAR was prepared as follows: lenses […] were removed from Sprague-Dawley rats and frozen at −70°C until use. Noncataractous transparent lenses were pooled and a homogenate was prepared in 0.1 M phosphate buffer saline (pH 6.2). RLAR homogenate was then centrifuged at 9600 ×g for 20 min. After centrifugation in a refrigerated centrifuge, the supernatant was collected and used as the RLAR. All procedures were carried out at 4°C [10].
RLAR activity was assayed spectrophotometrically by measuring the decrease in the absorption of NADPH at 340 nm over a 4 min period using DL-glyceraldehyde as the substrate. Each 1.0 mL cuvette contained equal units of the enzyme, 0.1 M sodium phosphate buffer (pH 6.2), 0.3 mM NADPH, with or without 10 mM of the substrate, and an inhibitor [11].

Compound	IC50 [1]	IC50 AGEs [1]	IC50 [2]	IC50 [3]	inhibitory effect on DPPH (in words) [2]
N=C(N)NN [Aminoguanidine, aminoguanidine, reference compound]	820 ± 79.4 µM	90.70 ± 8.71 µg/mL	–	–	–
O=C(O)CCc1ccc(O)c(O)c1 [Compound 1, 3-(3,4-dihydroxyphenyl)-propionic acid]	184 ± 17.6 µM	–	110 ± 9.39 µM	> 1000 µM	–
O=C(/C=C/c1ccc(O)c(O)c1)O[C@@H]1C[C@](O)(C(=O)O)C[C@@H](O)[C@H]1O [Compound 2, chlorogenic acid]	> 1000 µM	–	–	8.35 ± 0.45 µM	–
O=C(/C=C/c1ccc(O)c(O)c1)OC[C@H]1O[C@@H](OCCc2ccc(O)c(O)c2)[C@H](O)[C@@H](O)[C@@H]1O [Compound 4, calceolarioside B]	> 1000 µM	–	94.6 ± 6.86 µM	24 ± 2.3 µM	–
O=c1cc(-c2ccc(O)c(O[C@@H]3O[C@H](CO)[C@@H](O)[C@H](O)[C@H]3O)c2)oc2cc(O)cc(O)c12 [Compound 5, luteolin-3′-O-β-D-glucopyranoside]	118 ± 11.5 µM	–	96.3 ± 9.19 µM	7.34 ± 0.35 µM	–
O=c1c(O[C@@H]2O[C@H](CO)[C@@H](O)[C@H](O)[C@H]2O)c(-c2ccc(O)c(O)c2)oc2cc(O)cc(O)c12 [Compound 6, quercetin-3-O-β-D-glucopyranoside]	> 1000 µM	–	122 ± 10.9 µM	10.4 ± 1.38 µM	–
O=c1cc(-c2ccc(O)c(O)c2)oc2cc(O[C@@H]3O[C@H](CO)[C@@H](O)[C@H](O)[C@H]3O)cc(O)c12 [Compound 7, luteolin-7-O-β-D-glucopyranoside]	> 1000 µM	–	> 1000 µM	16.1 ± 1.2 µM	no an inhibitory effect
O=C1O[C@H]([C@@H](O)CO)C(O)=C1O [L-ascorbic acid, reference compound]	–	–	54.4 ± 5.73 µM	–	–
O=c1cc(-c2ccc(O)c(O[C@@H]3O[C@H](CO)[C@@H](O)[C@H](O)[C@H]3O)c2)oc2cc(O)cc(O)c12 [luteolin-3′-O-β-D-glucopyranoside]	–	–	–	7.34 to 24 µM	–
O=c1cc(-c2ccc(O)c(O)c2)oc2cc(O[C@@H]3O[C@H](CO)[C@@H](O)[C@H](O)[C@H]3O)cc(O)c12 [luteolin-7-O-β-D-glucopyranoside]	–	–	–	7.34 to 24 µM	–
O=c1c(O[C@@H]2O[C@H](CO)[C@@H](O)[C@H](O)[C@H]2O)c(-c2ccc(O)c(O)c2)oc2cc(O)cc(O)c12 [quercetin-3-O-β-D-glucopyranoside]	–	–	–	7.34 to 24 µM	–
neochlorogenic acid [Compound 3]	115 ± 10.5 µM	–	> 1000 µM	72 ± 25.8 µM	no an inhibitory effect
